Here are results for two compounds from PMC5773487, “Harnessing insulin- and leptin-induced oxidation of PTP1B for therapeutic development” (Nature Communications, 2018).

The target in test [1] is T1, PTP1B-OX (Homo sapiens, UniProt P18031).
T1 construct: Purified PTP1B (1–321) (100 nM) was mixed with increasing concentrations of H2O2; 6xHis (C); made in house; host or cells: E. coli BL21 (DE3)-RIL
T1 sequence (P18031 1-321): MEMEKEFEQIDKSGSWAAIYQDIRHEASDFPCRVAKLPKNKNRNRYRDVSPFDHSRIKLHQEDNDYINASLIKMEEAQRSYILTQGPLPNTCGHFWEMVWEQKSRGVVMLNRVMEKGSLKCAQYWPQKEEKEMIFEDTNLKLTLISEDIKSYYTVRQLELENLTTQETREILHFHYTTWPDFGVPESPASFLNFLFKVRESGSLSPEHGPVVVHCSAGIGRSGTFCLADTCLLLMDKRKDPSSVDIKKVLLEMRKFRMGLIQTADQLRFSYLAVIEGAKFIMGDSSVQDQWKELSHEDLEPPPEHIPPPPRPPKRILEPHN
The experiment in a line: reduction and reactivation of reversibly oxidized PTP1B by TCEP, DiFMUP substrate. Type of test: biochemical. As to conditions: complex diluted 100-fold, activity monitored 120 min.

For another test, the target named is T2, reduced PTP1B (Homo sapiens, UniProt P18031).
T2 construct: Purified PTP1B (1–321) (100 nM) was mixed with increasing concentrations of H2O2; 6xHis (C); made in house; host or cells: E. coli BL21 (DE3)-RIL
T2 sequence (P18031 1-321): T1 sequence (P18031 1-321)
The experiment in a line: phosphatase activity of reduced PTP1B, DiFMUP substrate. It is filed as biochemical. As for the experimental part:
Fig. 4 Identification and characterization of small molecules that mimic the effect of scFv45. a Reversibly oxidized PTP1B (PTP1B-OX) was generated by incubation with H2O2 in vitro, desalted, then assayed (20 nM) in the presence and absence of individual members of the LOPAC library. In the right panel, each dot represents an activity measurement. […] Data are representative of at least two independent experiments (n = 2). b Increasing concentration of sanguinarine was tested against reduced (circle) and oxidized (square) forms of PTP1B, using DiFMUP as substrate. c Increasing concentration of levamisole was tested against reduced (circle) and oxidized (square) PTP1B, using DiFMUP as substrate. d PTP1B-OX (200 nM) was incubated with sanguinarine (25 µM) for 5 min and the complex was diluted 100-fold and the activity was monitored for 120 min continuously. e PTP1B-OX (200 nM) was incubated with levamisole (40 µM) for 5 min and the complex was diluted 100-fold and the activity was monitored for 120 min continuously. f Increasing concentration of chelerythrine, an analog of sanguinarine, was tested against reduced (circle) and oxidized (square) forms of PTP1B, using DiFMUP as substrate. […] Individual data points represent the mean obtained from three separate experiments (n = 3; b–g)
(§1) Purified PTP1B (1–321) (100 nM) was mixed with increasing concentrations of H2O2 (0.05–100 mM) in phosphatase assay buffer (50 mM HEPES, pH 7.0, 100 mM NaCl, 0.1% BSA) at room temperature for 5 min. From this reaction mixture PTP1B (10 nM) was used to monitor phosphatase activity using DiFMUP as the substrate, with or without 5 mM TCEP. Activity of each sample was compared to that of the untreated PTP1B in the presence of 5 mM TCEP.

Test [2] addresses T1, PTP1B-OX. The experiment in a line: reduction and reactivation of reversibly oxidized PTP1B by TCEP, DiFMUP substrate. The conditions noted are these: for restoration of PTP1B-OX activity by TCEP in LOPAC primary screen: compound 10 μM; for pIC50: wild-type PTP1B-OX, reactivation by TCEP, DiFMUP substrate, read-out: IC50 against PTP1B-OX. It is filed as biochemical. As for the experimental part:
Therefore, our approach has been to adapt this assay, which we used to screen for conformation-sensor scFvs[17], now to screen for small molecules that act through a similar mechanism. Our primary screening assay tested the ability of small molecule inhibitors to antagonize the reduction and reactivation of the oxidized conformation of PTP1B, similar to that of scFv45 (Fig. 4a).
as §1
To screen the LOPAC library against PTP1B-OX, 0.5 μl of 1 mM compound in 100% DMSO was added to 384-well plates, resulting in a final compound concentration of 10 μM for the primary screen. Recombinant PTP1B (100 nM) was reversibly oxidized and inactivated with H2O2 (4 mM). The phosphatase activity was restored by a quick buffer exchange and addition of reducing agent (TCEP). PTP1B-OX was incubated with LOPAC compounds (10 μM) in the assay buffer (50 mM HEPES pH 7.0, 100 mM NaCl, 0.005% Tween, 2 mM EDTA) and the effect of individual compound on stabilizing the reversibly oxidized conformation was assessed by the phosphatase assay under reducing conditions using DiFMUP as substrate. scFv45 was used as positive control.

The test system of the next test is PKC. As to conditions: cited from earlier work.

Structures are written as SMILES. pIC50: −log10 of the molar value.

With `c1ccc([C@H]2CN3CCSC3=N2)cc1` [levamisole], the “reversibility of PTP1B-OX inhibition” value at PTP1B-OX [1] is given as “reversible”. Besides, at reduced PTP1B, the “inhibition of the reduced form of PTP1B” value is listed as “no effect”. For the same compound, on PTP1B-OX [2], the “restoration of PTP1B-OX activity by TCEP in LOPAC primary screen” value is on record as “only able to restore enzymatic activity partially” and the pIC50 (as a rule, the negative decadic logarithm of the IC50, by convention in mol/L) is 4.44.
Take `C[n+]1cc2c3c(ccc2c2ccc4cc5c(cc4c21)OCO5)OCO3` [sanguinarine]: the “inhibition of PKC” value in the test with PKC is “not an inhibitor”. Further, on PTP1B-OX [1], the “reversibility of PTP1B-OX inhibition” value was “reversible”. For the same compound, the “inhibition of the reduced form of PTP1B” value on reduced PTP1B is reported as “no effect”. Moreover, at PTP1B-OX [2], the “restoration of PTP1B-OX activity by TCEP in LOPAC primary screen” value is recorded as “only able to restore enzymatic activity partially” and the pIC50 is 4.60.
